Measurements taken from patent publication US20050250819A1 (priority 2004, published 2005).

System: Type III protein secretion of the chimeric SopE‘-’Bla polypeptide (SPI1 type III protein secretion system)
Test: Primary assay: Type III protein secretion of the chimeric SopE'-'Bla polypeptide by Salmonella enterica
Format: cell-based
Settings: read-out: SopE IC50(μM)
Source text: Primary assay: Type III protein secretion of the chimeric SopE‘-’Bla polypeptide by Salmonella enterica. This procedure is a cell-based assay that measures the type III-dependent secretion by Salmonella enterica of a plasmid-encoded chimeric polypeptide whose synthesis can be regulated, and which is endowed with an enzymatic activity that can be monitored colorimetrically by hydrolysis of a substrate that is unable to penetrate into the bacterial cytoplasm within the time constraints of the reaction. Thus, the colormetric reaction is not influenced by SopE‘-’Bla polypeptide in the bacterial cytplasm. Instead, it effectively measures the amount of polypeptide that has been secreted from the S. enterica cytoplasm to the extracellular medium via type III system protein secretion.
The SopE‘-’Bla recombinant polypeptide consists of two functionally distinct domains spliced together. The N-terminus domain is encoded by a polynucleotide region specifying the signal for type III secretion of the SopE polypeptide of S. enterica, an effector of the SPI1 type III protein secretion system. The C-terminus domain of SopE‘-’Bla consists of a 263 amino acid peptide sequence that corresponds to the TEM-1 β-lactamase expressed by plasmid pBR322 but without its N-terminal signal sequence. The TEM-1 β-lactamase part of the SopE‘-’Bla chimeric polypeptide is used as a reporter enzyme. It is capable of hydrolyzing nitrocefin resulting in a product whose accumulation can be monitored by colorimetric detection. The secretion of the SopE‘-’Bla chimeric polypeptide from the cytoplasm to the extracellular medium is dependent on type III protein secretion.
For this procedure, cells grown under conditions known to favor a functional SPI1 secretion system are induced for expression of the SopE‘-’Bla protein and grown either in the presence or in the absence of putative inhibitors for determined time. Nitrocefin is then added to the various cultures and its hydrolysis are used for quantitation. An inhibitor of Type III protein secretion is generally a compound that reduces the signal of the enzymatic reaction by decreasing the amount of SopE‘-’Bla secreted into the extracellular medium.

Structure (SMILES): O=C(NC(COCc1ccccc1)C(=O)O)/C(=C\c1cccc(Oc2ccc(Cl)cc2)c1)NC(=O)c1ccc(C(F)(F)F)cc1 (stereo in doubt) [Compound 31, (S)-3-Benzyloxy-2-[3-[3-(4-chlorophenoxy)phenyl]-2-(4-trifluoromethyl-benzoylamino)acryloylamino]propionic acid]
- IC50: 7.7 µM

Structure (SMILES): COc1ccc(/C=C(/NC(=O)c2ccc(-c3ccccc3)cc2)C(=O)N[C@@H](Cc2ccc(Cl)cc2)C(=O)O)cc1OC (stereo in doubt) [Compound 50, 2-[2-[(Biphenyl-4-carbonyl)amino]-3-(3,4-dimethoxyphenyl)acryloylamino]-3-(4-chlorophenyl)propionic acid]
- IC50: 79.4 µM

Structure (SMILES): O=C(O)[C@H](Cc1ccc(Cl)cc1)NC(=O)N(CCc1ccc(-c2ccccc2)cc1)Cc1ccc(Cl)c(Cl)c1 (stereo in doubt) [Compound 86, 2-[3-(2-Biphenyl-4-yl-ethyl)-3-(3,4-dichlorobenzyl)ureido]-3-(4-chlorophenyl)-propionic acid]
- IC50: 1.1 µM

Structure (SMILES): O=C(NCC1CCCO1)/C(=C\c1ccc(-c2ccccc2)cc1)NC(=O)c1ccc(C(F)(F)F)cc1 (stereo not drawn) [Compound 2, N-{2-Biphenyl-4-yl-1-[(tetrahydro-furan-2-yl-methyl)carbamyl]vinyl}-4-trifluoromethylbenzamide]
- IC50: 69 µM

Structure (SMILES): O=C(N[C@@H](CSCc1ccccc1)C(=O)O)/C(=C\c1cccc2ccccc12)NC(=O)c1ccc(C(F)(F)F)cc1 [Compound 3, (R)-3-Benzylsulfanyl-2-[3-naphthalen-1-yl-2-(4-trifluoromethylbenzoylamino)-acryloylamino]propionic acid]
- IC50: 30.3 µM

Structure (SMILES): O=C(NC(Cc1ccc(Cl)cc1)C(=O)O)/C(=C\c1cccc(C(F)(F)F)c1)CC(=O)c1ccc(-c2ccccc2)cc1 (stereo not drawn) [Compound 4, 2-[2-(2-Biphenyl-4-yl-2-oxoethyl)-3-(3-trifluoromethylphenyl)acryloylamino]-3-(4-chlorophenyl)propionic acid]
- IC50: 1.1 µM

Structure (SMILES): O=C(NC(Cc1ccc(Cl)cc1)C(=O)O)/C(=C\c1ccc(Cl)c(C(F)(F)F)c1)CC(=O)c1ccc(-c2ccccc2)cc1 (stereo not drawn) [Compound 5, 2-[2-(2-Biphenyl-4-yl-2-oxoethyl)-3-(4-chloro-3-trifluoromethylphenyl)-acryloylamino]-3-(4-chlorophenyl)propionic acid]
- IC50: 0.8 µM

Structure (SMILES): O=C(NN(Cc1ccc(-c2ccccc2)cc1)C(=O)N[C@@H](CSCc1ccccc1)C(=O)O)c1ccc(C(F)(F)F)cc1 [Compound 8, 4-Trifluoromethylbenzoic acid-N′-[(biphenyl-4-yl)methyl]-N′-[[[(2-benzylthio)-1-carboxyethyl]amino]carbonyl]hydrazide]
- IC50: 10 µM

Structure (SMILES): O=C(NN(Cc1cccc(Oc2ccccc2)c1)C(=O)N[C@@H](CSCc1ccccc1)C(=O)O)c1ccc(C(F)(F)F)cc1 [Compound 9, 4-Trifluoromethylbenzoic acid-N′-[(3-phenoxyphenyl)methyl]-N′-[[[(2-benzylthio)-1-carboxyethyl]amino]carbonyl]hydrazide]
- IC50: 15 µM

Structure (SMILES): O=C(NN(Cc1cccc(Oc2ccccc2)c1)C(=O)N[C@@H](COCc1ccccc1)C(=O)O)c1ccc(C(F)(F)F)cc1 [Compound 10, 4-Trifluoromethylbenzoic acid-N′-[(3-phenoxyphenyl)methyl]-N′-[[[(2-benzyloxy)-1-carboxyethyl]amino]carbonyl]hydrazide]
- IC50: 22 µM

Structure (SMILES): O=C(NN(Cc1ccc(OC(F)(F)F)cc1)C(=O)N[C@@H](CSCc1ccccc1)C(=O)O)c1ccc(C(F)(F)F)cc1 [Compound 11, 4-Trifluoromethylbenzoic acid-N′-[(4-trifluoromethoxyphenyl)methyl]-N′-[[[(2-benzylthio)-1-carboxyethyl]amino]carbonyl]hydrazide]
- IC50: 49 µM

Structure (SMILES): O=C(NN(Cc1ccc(Oc2ccccc2)cc1)C(=O)N[C@@H](CSCc1ccccc1)C(=O)O)c1ccc(C(F)(F)F)cc1 [Compound 12, 4-Trifluoromethylbenzoic acid-N′-[(4-phenoxyphenyl)methyl]-N′-[[[(2-benzylthio)-1-carboxyethyl]amino]carbonyl]hydrazide]
- IC50: 12.5 µM

Structure (SMILES): O=C(O)C[C@H](Cc1ccc(Cl)cc1)NC(=O)/C(=C\c1ccc(-c2ccccc2)cc1)NC(=O)c1ccc(C(F)(F)F)cc1 [Compound 13, (S)-3-[3-Biphenyl-4-yl-2-(4-trifluoromethylbenzoylamino)acryloylamino]-4-(4-chlorophenyl)butyric acid]
- IC50: 5.2 µM

Structure (SMILES): O=C(N[C@@H](COCc1ccccc1)C(=O)O)C(=Cc1ccc(Oc2ccccc2)cc1)NC(=O)c1ccc(C(F)(F)F)cc1 [Compound 15, (S)-3-Benzyloxy-2-[3-(4-phenoxyphenyl)-2-(4-trifluoromethylbenzoylamino)-acryloylamino]propionic acid]
- IC50: 11 µM

Structure (SMILES): O=C(N[C@@H](Cc1ccc(Cl)cc1)C(=O)O)/C(=C\c1ccc(Oc2ccccc2)cc1)NC(=O)c1ccc(C(F)(F)F)cc1 [Compound 16, (S)-3-(4-Chlorophenyl)-2-[3-(4-phenoxyphenyl)-2-(4-trifluoromethylbenzoylamino)-acryloylamino]propionic acid]
- IC50: 4.9 µM

Structure (SMILES): O=C(N[C@H](COCc1ccccc1)C(=O)O)/C(=C\c1ccc(-c2ccccc2)cc1)NC(=O)c1ccc(C(F)(F)F)cc1 [Compound 24, (R)-3-Benzyloxy-2-[3-biphenyl-4-yl-2-(4-trifluoromethylbenzoylamino)-acryloylamino]propionic acid]
- IC50: 12.5 µM

Structure (SMILES): O=C(N[C@@H](Cc1ccc(Cl)cc1)C(=O)O)/C(=C\c1ccc(-c2ccccc2)cc1)NC(=O)c1ccc(C(F)(F)F)cc1 [Compound 25, (S)-2-[3-Biphenyl-4-yl-2-(4-trifluoromethylbenzoylamino)acryloylamino]-3-(4-chlorophenyl)propionic acid]
- IC50: 6 µM

Structure (SMILES): O=C(N[C@@H](Cc1ccc(Cl)cc1)C(=O)O)/C(=C\c1cccc(C(F)(F)F)c1)NC(=O)c1ccc(Cl)cc1 [Compound 27, (S)-2-[2-(4-Chlorobenzoylamino)-3-(3-trifluoromethylphenyl)acryloylamino]-3-(4-chlorophenyl)propionic acid]
- IC50: 87 µM

Structure (SMILES): O=C(N[C@H](Cc1ccc(Cl)cc1)C(=O)O)/C(=C\c1cccc(C(F)(F)F)c1)NC(=O)c1ccc(Cl)cc1 [Compound 28, (R)-2-[2-(4-Chlorobenzoylamino)-3-(3-trifluoromethylphenyl)acryloylamino]-3-(4-chlorophenyl)propionic acid]
- IC50: 86 µM

Structure (SMILES): O=C(N[C@@H](COCc1ccccc1)C(=O)O)/C(=C\c1ccc(Cl)c(Cl)c1)NC(=O)c1ccc(Cl)cc1 [Compound 29, (S)-3-Benzyloxy-2-[2-(4-chlorobenzoylamino)-3-(3,4-dichlorophenyl)-acryloylamino]propionic acid]
- IC50: 70 µM

Structure (SMILES): CC(C)c1ccc(/C=C(/NC(=O)c2ccc(C(F)(F)F)cc2)C(=O)N[C@@H](COCc2ccccc2)C(=O)O)cc1 [Compound 32, (S)-3-Benzyloxy-2-[3-(4-isopropylphenyl)-2-(4-trifluoromethylbenzoylamino)-acryloylamino]propionic acid]
- IC50: 34.8 µM

Structure (SMILES): O=C(N[C@H](Cc1ccc(Cl)cc1)C(=O)O)/C(=C\c1cccc(C(F)(F)F)c1)NC(=O)c1ccc(OC(F)(F)F)cc1 [Compound 36, (R)-3-(4-Chlorophenyl)-2-[2-(4-trifluoromethoxybenzoylamino)-3-(3-trifluoromethylphenyl)acryloylamino]propionic acid]
- IC50: 21.6 µM

Structure (SMILES): O=C(N[C@@H](Cc1ccc(Cl)cc1)C(=O)O)/C(=C\c1cccc(C(F)(F)F)c1)NC(=O)c1ccc(OC(F)(F)F)cc1 [Compound 37, (S)-3-(4-Chlorophenyl)-2-[2-(4-trifluoromethoxybenzoylamino)-3-(3-trifluoromethylphenyl)acryloylamino]propionic acid]
- IC50: 25 µM

Structure (SMILES): O=C(N[C@@H](CSCc1ccccc1)C(=O)O)/C(=C\c1ccc(Br)cc1)NC(=O)c1ccc(C(F)(F)F)cc1 [Compound 41, (R)-3-Benzylsulfanyl-2-[3-(4-bromophenyl)-2-(4-trifluoromethylbenzoylamino)-acryloylamino]propionic acid]
- IC50: 48 µM

Structure (SMILES): CN(C(=O)/C(=C\c1cccc(C(F)(F)F)c1)NC(=O)c1ccc(-c2ccccc2)cc1)[C@H](Cc1ccc(Cl)cc1)C(=O)O [Compound 42, (R)-2-{[2-[(Biphenyl-4-carbonyl)amino]-3-(3-trifluoromethylphenyl)acryloyl]-methylamino}-3-(4-chlorophenyl)propionic acid]
- IC50: 15 µM

Structure (SMILES): O=C(N[C@@H](CSCc1ccccc1)C(=O)O)/C(=C\c1cccc(Oc2ccccc2)c1)NC(=O)c1ccc(Cl)cc1 [Compound 43, (R)-3-Benzylsulfanyl-2-[2-(4-chlorobenzoylamino)-3-(3-phenoxyphenyl)-acryloylamino]propionic acid]
- IC50: 34.2 µM

Structure (SMILES): O=C(N[C@@H](CSCc1ccccc1)C(=O)O)/C(=C\c1ccc2ccccc2c1)NC(=O)c1ccc(Br)cc1 [Compound 45, (R)-3-Benzylsulfanyl-2-[2-(4-bromobenzoylamino)-3-naphthalen-2-yl-acryloylamino]propionic acid]
- IC50: 81.6 µM
